This note sets out measurements from patent US9403797B2, “5-(pyridin-2-yl-amino)-pyrazine-2-carbonitrile compounds and their therapeutic use” (Cancer Research Technology Limited, priority 2011, dated 2016).

As a reminder, the IC50 is the concentration that inhibits the measured activity by half.

The target of one data set is CHK1 (Homo sapiens (Human), UniProt O14757). The data set is described as follows: Inhibitor potency vs. CHK1 (Assay 1A DELFIA or Assay 1B Caliper format). The format is biochemical. As for the experimental part: Assay 1A: Determination of Inhibitor Potency vs. CHK1 in DELFIA Assay Format
Chain of CHK1 (O14757 whole entry): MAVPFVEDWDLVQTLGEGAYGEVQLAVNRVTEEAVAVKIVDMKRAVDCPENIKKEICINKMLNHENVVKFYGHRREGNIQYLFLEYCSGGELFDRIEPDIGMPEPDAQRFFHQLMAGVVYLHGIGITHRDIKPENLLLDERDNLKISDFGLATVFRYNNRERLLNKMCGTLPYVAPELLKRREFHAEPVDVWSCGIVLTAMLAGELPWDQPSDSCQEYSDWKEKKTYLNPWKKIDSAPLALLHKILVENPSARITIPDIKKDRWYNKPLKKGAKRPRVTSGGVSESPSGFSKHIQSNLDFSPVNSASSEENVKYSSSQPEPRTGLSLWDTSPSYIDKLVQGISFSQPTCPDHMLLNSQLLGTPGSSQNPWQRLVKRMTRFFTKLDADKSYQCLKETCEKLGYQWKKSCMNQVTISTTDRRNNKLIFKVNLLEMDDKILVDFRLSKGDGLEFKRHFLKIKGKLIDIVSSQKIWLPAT
CHK1 kinase function was measured in a DELFIA® assay in order to monitor phosphorylation of a CDC25C peptide using a specific phospho antibody. […] The reaction mixture was incubated for 30 minutes at room temperature and then stopped by the addition of buffer (125 μL) containing 40 mM EDTA, 0.05% Tween 20, 0.1% BSA in TBS (10× concentrate, Sigma). An aliquot (100 μL) of the stopped reaction mixture was transferred to a black neutravidin-coated plate (Perbio) and incubated for 1 hour on a shaker (Titertek, Flow Laboratories) at room temperature. […] The plates were washed a further four times with wash buffer before the addition of enhancement solution (100 μL/well, PerkinElmer Life Sciences).
Assay 1B: Determination of Inhibitor Potency Vs. CHK1 in Caliper Assay Format
CHK1 kinase activity was measured in a microfluidic assay that monitors the separation of a phosphorylated product from its substrate. […] For each test compound a 50 μM stock concentration in 100% DMSO was used. […] The plate was sealed and centrifuged (1 minutes, 1000 rpm) before incubation for one hour at room temperature. The reaction was stopped by the addition of separation buffer (90 μL). […] IC50 values were calculated in GraphPad Prism5 using a non linear regression fit of the log (inhibitor) vs. response with variable slope equation.

The next data set deals with CHK2 (Homo sapiens (Human), UniProt O96017). Kind of data set: Inhibitor selectivity for inhibition of CHK1 vs. CHK2 (Assay 2, CHK2 DELFIA assay). The format is biochemical. To be noted: CHK2 IC50/CHK1 IC50. As for the experimental part: The plates were washed a further four times with wash buffer before the addition of enhancement solution (100 μL/well, PerkinElmer Life Sciences).
Chain of CHK2 (O96017 whole entry): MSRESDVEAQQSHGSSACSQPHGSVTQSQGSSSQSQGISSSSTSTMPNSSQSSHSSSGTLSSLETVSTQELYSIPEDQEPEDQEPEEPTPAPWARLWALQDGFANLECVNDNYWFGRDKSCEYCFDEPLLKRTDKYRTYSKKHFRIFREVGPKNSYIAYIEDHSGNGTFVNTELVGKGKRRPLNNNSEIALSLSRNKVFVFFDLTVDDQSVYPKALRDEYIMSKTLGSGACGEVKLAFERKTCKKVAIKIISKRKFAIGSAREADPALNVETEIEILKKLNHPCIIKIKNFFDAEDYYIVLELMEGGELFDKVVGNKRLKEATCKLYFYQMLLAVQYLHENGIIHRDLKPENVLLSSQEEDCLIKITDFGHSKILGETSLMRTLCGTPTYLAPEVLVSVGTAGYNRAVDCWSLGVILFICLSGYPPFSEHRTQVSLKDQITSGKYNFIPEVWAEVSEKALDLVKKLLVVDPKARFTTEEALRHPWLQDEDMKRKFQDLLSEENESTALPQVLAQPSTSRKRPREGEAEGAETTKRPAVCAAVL

In another data set the test system is TH-MYCN neuroblastoma. Kind of data set: In Vivo Study 1: transgenic MYCN-driven neuroblastoma model. Further details: species or system mouse. The method, then:
In Vivo Study 1: PAPC-A-01 in Transgenic MYCN-Driven Neuroblastoma Model
Spontaneous neuroblastomas arising in hemizygous mice transgenic for TH-MYCN (human MYCN under the control of the rat tyrosine hydroxylase promoter) were detected by abdominal palpation. Sequential animals with well-established tumours (30-70 days of age) were randomised to receive either test compound (PAPC-A-01) or vehicle until 8-9 mice per group were accrued. The test compound (PAPC-A-01) was administered as a single agent at 100 mg/kg p.o. daily for 7 consecutive days by oral gavage (100 μL/10 g body weight) and controls received an equivalent volume of vehicle (10% DMSO, 5% Tween 20, 85% saline). Neuroblastoma size was assessed by MRI and by the mass of tumours dissected from the abdominal cavity at the end of therapy.
^1H MRI was performed on a 7T Bruker horizontal bore microimaging system (Bruker Instruments, Ettlingen, Germany) using a 3 cm birdcage coil. Anaesthesia was induced a combination of fentanyl citrate (0.315 mg/mL) plus fluanisone (10 mg/mL) (Hypnorm, Janssen Pharmaceutical, Oxford, UK) and midazolam (5 mg/mL) (Roche, Welwyn Garden City, UK) and water (1:1:2). Animal body temperature was maintained by a warm air blower through the magnet bore.
Anatomical T2-weighted coronal and transverse images were acquired from twenty contiguous 1 mm-thick coronal slices through the mouse abdomen, using a rapid acquisition with refocused echoes (RARE) sequence with 4 averages of 128 phase encoding steps over a 3×3 cm field of view, two echoes of 36 and 132 ms, a TR of 4.5 s and a RARE factor of 8. Following MRI, the mice were left to recover on a heat mat for 24 hours. Tumour volumes were measured using segmentation from regions of interest drawn on every slice from the coronal T2 weighted images containing tumour using in-house software (ImageView, working under IDL, ITT, Boulder, Colo., USA).

In data set [1] the test system is HT29 human colon carcinoma xenograft. The data set is described as follows: In Vivo Study 2: combination with gemcitabine in HT29 human colon carcinoma xenograft. More on the design: species or system mouse. To be noted: for Tumour growth inhibition relative to controls / T/C vs. vehicle controls: day 24; for T/C vs. vehicle controls: tumour volumes; for Mean tumour volume (cm^3, mean ± SEM): day 24 after start of therapy, PAPC-A-01 75 mg/kg p.o., gemcitabine 100 mg/kg i.v. As for the experimental part:
In Vivo Study 2: PAPC-A-01 in Combination with Gemcitabine in HT29 Human Colon Carcinoma Xenograft
Animals weighed 20.3±2.0 g at the start of the study. Handing and all experimental procedures were performed under sterile conditions in laminar flow hoods in accordance with UK Home Office, national and local ethical guidelines.
HT29 colon carcinoma cells from the American Type Culture Collection (ATCC, LGC Promochem, Middesex, UK) were harvested from tissue culture flasks and injected subcutaneously in the right flanks of mice (3 million cells per site). Once tumours were established (mean diameter 0.55±0.05 cm) mice were randomised to treatment groups (n=6) to receive (a) test compound (PAPC-A-01) (75 mg/kg), (b) gemcitabine (100 mg/kg), (c) a combination (PAPC-A-01) (75 mg/kg) and gemcitabine (100 mg/kg), or (d) relevant vehicles.
Clinical grade gemcitabine hydrochloride (GEMZAR, Eli Lilly, Newmarket, UK) was reconstituted in sterile 0.9% sodium chloride and aliquots frozen at −20° C. Gemcitabine was administered intravenously once weekly via a lateral tail vein on days 0 (day 5 after tumour cell implantation), 7 and 14. Test compound (PAPC-A-01) was dissolved in 10% DMSO and diluted out in 5% Tween 20, 85% saline. Test compound (PAPC-A-01) was administered by oral gavage on days 1, 2, 8, 9, 15 and 16. The control animals received both vehicles by the appropriate route on the designated days. The compounds were administered in a volume of 100 μL per 10 g body weight.
Animals were observed daily and body weights and tumours measured three times weekly. Two perpendicular tumour diameters were used to calculate volumes using the formula: V=4/3π[(d1+d2)/4]^3.
T/C values (volumes of treated tumours vs. controls) were calculated with respect to vehicle control tumours or those treated with gemcitabine alone, expressed as a percentage.

For a further data set, the system named is HT29 cells. Kind of data set: Mitosis Inhibition Assay (MIA), checkpoint abrogation. Conditions: Homo sapiens, HT-29, read-out: MIA IC50.
The next data set is described as follows: in vivo. Conditions: female, BALB/c, mouse, Oral bioavail. (plasma concentration, 1 hour following 10 mg/kg p.o.).
A short description of data set [2]: Comparative oral bioavailability by limited sampling in vivo pharmacokinetics. Conditions: female, BALB/c, mouse, plasma, 10 mg/kg, Oral bioavail. (plasma concentration, 1 hour following 10 mg/kg p.o.), female BALB/c mice, expressed relative to 10 mg/kg p.o.
The mark [3] stands for this setting: Assay 1A (DELFIA) or Assay 1B (Caliper), read-out: CHK1 IC50.

Each structure is given as a SMILES string. Like-named read-outs stand apart in the source and are kept apart here.

As to `CNc1cc(Nc2cnc(C#N)c(O[C@H](C)CN(C)C)n2)ncc1C#CC(C)(C)O` [PAPC-A-08, (R)-3-((1-(Dimethylamino)propan-2-yl)oxy)-5-((5-(3-hydroxy-3-methylbut-1-yn-1-yl)-4-(methylamino)pyridin-2-yl)amino)pyrazine-2-carbonitrile], the IC50 against CHK1 was less than 0.02 µM. For the compound `C[C@H](CN(C)C)Oc1nc(Nc2cc(N(C)C)c(-c3cnn(C)c3)cn2)cnc1C#N` [PAPC-A-03, (R)-5-((4-(Dimethylamino)-5-(1-methyl-1H-pyrazol-4-yl)pyridin-2-yl)amino)-3-((1-(dimethylamino)propan-2-yl)oxy)pyrazine-2-carbonitrile], the IC50 on CHK1 (setting [3]) is less than 0.02 µM. `CNc1cc(Nc2cnc(C#N)c(O[C@H](C)CN(C)C)n2)ncc1C(=O)OC` [PAPC-A-10, (R)-Methyl 6-((5-cyano-6-((1-(dimethylamino)propan-2-yl)oxy)pyrazin-2-yl)amino)-4-(methylamino)nicotinate] yielded an IC50 against CHK1 of less than 0.02 µM. For `COc1cc(Nc2cnc(C#N)c(O[C@H](C)CN(C)C)n2)ncc1-c1cnn(C)c1` [PAPC-A-01, (R)-3-((1-(Dimethylamino)propan-2-yl)oxy)-5-((4-methoxy-5-(1-methyl-1H-pyrazol-4-yl)pyridin-2-yl)amino)pyrazine-2-carbonitrile], the “CHK1 vs. CHK2 selectivity” value at CHK2 is 540-fold. In addition, in the data set on TH-MYCN neuroblastoma (100 mg/kg p.o. daily for 7 days), the “T/C (tumour weight)” value is 13.4%. Further, the “MR imaging in individual mice, pre-treatment and on day 7” value in the data set with TH-MYCN neuroblastoma (7 day treatment period, 100 mg/kg p.o. daily) is recorded as “tumour regression”. Also, in the data set with TH-MYCN neuroblastoma (mean±SD, 100 mg/kg p.o. daily for 7 days, control 2.1±0.7 g), the “Mean weight of tumours at the end of the study” value amounted to 0.3 ± 0.2 g. Moreover, the “Tumour volume (MRI)” value with TH-MYCN neuroblastoma (one mouse, following 7 days treatment, 100 mg/kg p.o. daily, pre-treatment volume 1960 mm^3) is on record as 417 mm^3. Further, the IC50 on CHK1 is less than 0.02 µM. Moreover, the IC50 on CHK1 (setting [3]) turned out to be 0.006 µM. In addition, in data set [1], the “Tumour growth inhibition relative to controls” value is listed as “no growth inhibition”; the “T/C vs. vehicle controls” value is 101.4%; the “Mean tumour volume (cm^3, mean ± SEM)” value is on record as 1.114 ± 0.257 cm^3. For `COC(=O)c1cnc(Nc2cnc(C#N)c(O[C@@H]3CCNC3)n2)cc1N(C)C` [PAPC-B-11, (R)-Methyl 6-((5-cyano-6-(pyrrolidin-3-yloxy)pyrazin-2-yl)amino)-4-(dimethylamino)nicotinate], on CHK1, the IC50 is less than 0.02 µM. In the case of `CNc1cc(Nc2cnc(C#N)c(O[C@@H]3CCN(C)C3)n2)ncc1-c1cnn(C)c1` [PAPC-B-05, (R)-5-((5-(1-Methyl-1H-pyrazol-4-yl)-4-(methylamino)pyridin-2-yl)amino)-3-((1-methylpyrrolidin-3-yl)oxy)pyrazine-2-carbonitrile], at CHK1, the IC50 is less than 0.02 µM. As for `CNc1cc(Nc2cnc(C#N)c(O[C@H]3CCNC3)n2)ncc1-c1cnn(C)c1` [PAPC-B-04, (S)-5-((5-(1-Methyl-1H-pyrazol-4-yl)-4-(methylamino)pyridin-2-yl)amino)-3-(pyrrolidin-3-yloxy)pyrazine-2-carbonitrile], the IC50 in the data set on HT29 cells is less than 0.5 µM. At CHK1, `CNc1cc(Nc2cnc(C#N)c(O[C@H]3CCN(C)C3)n2)ncc1-c1cnn(C)c1` [PAPC-B-06, (S)-5-((5-(1-Methyl-1H-pyrazol-4-yl)-4-(methylamino)pyridin-2-yl)amino)-3-((1-methylpyrrolidin-3-yl)oxy)pyrazine-2-carbonitrile] registered an IC50 of less than 0.02 µM. This compound also gave a concentration at 1 h in the data set “in vivo” of no less than 0.01 µM.

Take `Nc1ccn([C@@H]2O[C@H](CO)[C@@H](O)C2(F)F)c(=O)n1` [Gemcitabine, reference compound]: in data set [1], the “Tumour growth inhibition relative to controls” value is “approximately 20%”; the “T/C vs. vehicle controls” value turned out to be 80.8%; the “Mean tumour volume (cm^3, mean ± SEM)” value came out at 0.888 ± 0.188 cm^3. On CHK1, `COc1cc(Nc2cnc(C#N)c(O[C@@H]3CCN(C)C3)n2)ncc1-c1cnn(C)c1` [PAPC-B-02, (R)-5-((4-Methoxy-5-(1-methyl-1H-pyrazol-4-yl)pyridin-2-yl)amino)-3-((1-methylpyrrolidin-3-yl)oxy)pyrazine-2-carbonitrile] registered an IC50 of less than 0.02 µM.

`CNc1cc(Nc2cnc(C#N)c(O[C@@H]3CCNC3)n2)ncc1C#CC(C)(C)O` [PAPC-B-08, (R)-5-((5-(3-Hydroxy-3-methylbut-1-yn-1-yl)-4-(methylamino)pyridin-2-yl)amino)-3-(pyrrolidin-3-yloxy)pyrazine-2-carbonitrile] yielded a concentration at 1 h in data set [2] of no less than 0.01 µM. The IC50 at CHK1 (setting [3]) was less than 0.02 µM. Consider `CNc1cc(Nc2cnc(C#N)c(O[C@@H]3CCNC3)n2)ncc1-c1cnn(C)c1` [PAPC-B-03, (R)-5-((5-(1-Methyl-1H-pyrazol-4-yl)-4-(methylamino)pyridin-2-yl)amino)-3-(pyrrolidin-3-yloxy)pyrazine-2-carbonitrile], for which, in the data set on HT29 cells, the IC50 was less than 0.5 µM. The compound `CNc1cc(Nc2cnc(C#N)c(O[C@H](C)CN(C)C)n2)ncc1C1CC1` [PAPC-A-09, (R)-5-((5-Cyclopropyl-4-(methylamino)pyridin-2-yl)amino)-3-((1-(dimethylamino)propan-2-yl)oxy)pyrazine-2-carbonitrile] had a concentration at 1 h in the data set “in vivo” of no less than 0.01 µM. On to `COc1cc(Nc2cnc(C#N)c(O[C@@H]3CCNC3)n2)ncc1-c1cnn(C)c1` [PAPC-B-01, (R)-5-((4-Methoxy-5-(1-methyl-1H-pyrazol-4yl)pyridin-2-yl)amino)-3-(pyrrolidin-3-yloxy)pyrazine-2-carbonitrile], for which the IC50 on CHK1 was less than 0.02 µM.
